Measurements reported in US11447479B2, “Compounds active towards nuclear receptors” (NUEVOLUTION A/S, priority 2019, dated 2022).

What was measured:
[1] = tested on: Collagen-induced arthritis; experiment: Collagen-Induced Arthritis (CIA) study; type: in vivo; conditions: 10 mpk po bid, male DBA/1J mice
Procedure: Collagen-Induced Arthritis (CIA) Study Collagen-induced arthritis is an animal model of rheumatoid arthritis used to evaluate the efficacy of test compounds. CIA was induced at Washington Biotechnology Inc. (Baltimore) in male DBA/1J mice (Jackson Laboratories) by subcutaneous injection at the base of the tail with 50 μl of a bovine collagen/complete Freund's adjuvant emulsion. After 21 days, the mice were further boosted by a further subcutaneous injection of 50 μl of a collagen/incomplete Freund's adjuvant emulsion. For treatment, compound or vehicle (2% DMSO, 10% HP—β-CD in MilliQ water) was given orally twice daily at various doses selected from 3, 10, 30 mg/kg, beginning at the day of CIA induction (Prophylactic setting), or after disease initiation (at day 27, therapeutic setting). Treatment lasted until day 41, and the animals were scored three times weekly. Each paw was scored and the sum of all four scores was recorded as the Arthritic Index (AI). The maximum possible AI was 16. 0=no visible effects of arthritis; 1=edema and/or erythema of one digit; 2=edema and/or erythema of 2 joints; 3=edema and/or erythema of more than 2 joints; 4=severe arthritis of the entire paw and digits including limb deformation and ankylosis of the joint. […] At 10 mpk po bid, H6-13-2 Arthritis Index (AI) decreased with 83% of the effect of the mouse aIL-17A antibody. […]

Th17 cells = experiment: Th17 assay (IL-17 in supernatants of differentiating human naive CD4+ T cells, ELISA); type: cell-based; conditions: 168 h, Th17 differentiation for seven days with test compound, IL-17 levels in supernatants by ELISA
Procedure: Th17 Assay (Another Suitable Assay)
The following modifications were made to the manufacturer's protocol: 1) Incubation with Biotin-Antibody Cocktail and Anti-Biotin MicroBeads was prolonged to 30 minutes, and 2) Cells were washed with 40 mL of Miltenyi buffer. Differentiation of Th17 cells in anti-CD3 (BD Pharmingen, 5 μg/ml) coated 96-well plates (400,000 cells/well, 160 μl RPMI1640+10% Fetal Bovine Serum) containing 5 μg/ml anti-CD28 (BD Pharmingen), 10 ng/ml IL-2 (R&D Systems), 2.5 ng/ml TGFβ-1 (R&D Systems), 20 ng/ml IL-1β (R&D Systems), 20 ng/ml IL-6 (R&D Systems), 30 ng/ml IL-23 (R&D Systems), 2.5 μg/ml anti-IL-4 (R&D Systems) and 1 μg/ml anti-IFNγ (R&D Systems) and with test compound during the entire differentiation (or vehicle, 0.1% DMSO for control). Test compounds were tested in triplicates, diluted 1000-fold in medium (final DMSO concentration is 0.1%). Incubated for seven days at 37° C., 5% CO2, 95% humidity, and 2-fluoro-4′-[[4-(4-pyridinylmethyl)-1-piperazinyl]methyl]-α,α-bis(trifluoromethyl)-[1,1′-biphenyl]-4-methanol (SR2211 Calbiochem, Cat. No. 557353) was used as positive control. As negative control, cells were differentiated into Th0 using 5 μg/ml anti-CD28 (BD Pharmingen), 10 ng/ml IL-2 (R&D Systems), 2 μg/ml anti-IL4 (R&D Systems) and 2 μg/ml anti-IFNγ (R&D Systems) are negative control. IL-17 levels in supernatants were measured with ELISA (R&D Systems).

RORγ = target: T1, RORγ (Homo sapiens, UniProt P51449); experiment: RORγ Reporter Assay (Gal4); type: cell-based; conditions: HEK293 co-transfected with RORγ LBD-Gal4 and luciferase reporter, 24 h incubation, absolute IC50; read-out: IC50
T1 construct: Gal4 (galactose-responsive transcription factor); expressed in transfected cells; host or cells: HEK293
T1 sequence (P51449 269-508 limits assumed): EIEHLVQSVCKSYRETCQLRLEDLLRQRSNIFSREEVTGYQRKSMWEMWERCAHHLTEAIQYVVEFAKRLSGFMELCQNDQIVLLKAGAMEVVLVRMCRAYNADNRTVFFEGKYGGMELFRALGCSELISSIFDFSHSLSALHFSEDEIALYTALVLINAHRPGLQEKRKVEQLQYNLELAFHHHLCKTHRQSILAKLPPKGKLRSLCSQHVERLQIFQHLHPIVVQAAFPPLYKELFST
Procedure: RORγ Reporter Assay (Gal4)
The HEK293 cell line is co-transfected transiently with two plasmids, one with the RORγ ligand-binding domain fused to galactose-responsive transcription factor (Gal4), and the other with the luciferase reporter gene and Gal binding sites (UAS). This construction allows to determine the RORγ activity in a cellular system through the measurement of luminescence.
A suspension of RORγ reporter cells was dispensed into plates and cultured 2 h at 37° C. and 5% CO2. Media formulation consisted in DMEM/F-12 medium (Gibco) supplemented with 10% heat inactivated FBS (Sigma-Aldrich), non-essential aminoacids (Sigma-Aldrich), 2 mM Glutamax (Gibco) and 100 U/mF penicillin (Sigma-Aldrich). Dose-response curves with compounds were prepared in 100% DMSO and further diluted […] in culture medium. Compound solutions were added to the plate containing cells (final DMSO concentration of 0.1%) and incubated for 24 h at 37° C. and 5% CO2. Luciferase detection reagent was added to each well, and relative light units […] were quantified from each assay well using a plate reading luminometer.
Values of average RFU±S.D. were computed for all treatment sets, followed by the calculations of percent-reduction of RORγ activity in response to respective test compound. The following formula was used: activity=100*[1−[x test compound/average vehicle]where the theoretical minimum reduction (0% reduction).

plasma IL-17A = experiment: In vivo IL-17A induction in anti-CD3 model in mice; conditions: oral gavage twice daily day 0 to day 3, plasma IL-17A by ELISA, C57BL/6JRj mice
Procedure: In Vivo IL-17A Induction in Anti-CD3 Model in Mice
Male C57BL/6JRj mice (7 week old) were purchased from Janvier Labs and housed at the animal facilities of Almirall throughout the study. Animals were allowed to condition for 5 days in their new environment at 22° C.±2° C., 55%±10% relative humidity and 12 h:12 h light:dark cycles. Animals were housed in polycarbonate cages, with free access to water and non-purified stock diet (2014 Teklad Global 14% Protein Rodent Maintenance Diet, Envigo) during the full course of the studies. Care of animals was undertaken in compliance with the European Committee Directive 2010/63/EU, and the Catalan and Spanish law. […]
Plasma levels of IL-17A were measured by ELISA (R&D Systems) according to the manufacturer's instruction. Results were calculated as the percentage of reduction of plasma IL-17A versus the difference between non-induced and anti-CD3e induced groups through the formula: inhibition=100*[1−[(x−mean non-induced)/(mean control vehicle−mean non-induced)]]. The IL-17A inhibition for each treatment can be expressed as the mean for each treatment group±S.E.M. Statistical analysis of data were conducted with one-way ANOVA followed by Dunnett's multiple comparisons test when appropriate. […]

Row | IC50 (Th17 cells) | IC50 (RORγ) | Structure (SMILES) | Arthritis Index (AI) decrease as % of the effect of the mouse aIL-17A antibody [1] | Inhibition of IL-17A (%) at 3 mg/kg (plasma IL-17A)
1 | 82 nM | 66 nM | NC(=O)CN1CCC(CNc2ncnc(N3CCOC[C@@H]3c3ccc(C(F)(F)F)cn3)c2F)C(F)(F)C1 (single isomer, unassigned) [Example H6-11-2, 2-((R*)-3,3-difluoro-4-(((5-fluoro-6-((S)-3-(5-(trifluoromethyl)pyridin-2-yl)morpholino)pyrimidin-4-yl)amino)methyl)piperidin-1-yl)acetamide] | 61% | –
2 | 93 nM | 54 nM | NC(=O)CN1CC[C@H](CNc2ncnc(N3CCOC[C@@H]3c3ccc(C(F)(F)F)cn3)c2F)[C@@H](F)C1 (single isomer, unassigned) [Example H6-13-2, 2-((3R*,4R*)-3-fluoro-4-(((5-fluoro-6-((S)-3-(5-(trifluoromethyl)pyridin-2-yl)morpholino)pyrimidin-4-yl)amino)methyl)piperidin-1-yl)acetamide] | 83% | –
3 | – | 26 nM | NC(=O)CN1CC[C@H](CNc2ncnc(N3CC(F)(F)C[C@@H]3c3ccc(C(F)(F)F)cc3)c2F)[C@@H](O)C1 (single isomer, unassigned) [Example H6-17-1, 2-((3R*,4R*)-4-(((6-((R)-4,4-difluoro-2-(4-(trifluoromethyl)phenyl)pyrrolidin-1-yl)-5-fluoropyrimidin-4-yl)amino)methyl)-3-hydroxypiperidin-1-yl)acetamide] | – | 67%
